Assay: in vitro
Conditions: for Concentration (μM) of analyte PEA, 0 min / Concentration (μM) of analyte PEA, 10 min / Concentration (μM) of analyte PEA, 20 min / Concentration (μM) of analyte PEA, 30 min / Concentration (μM) of analyte PEA, 60 min / % Remaining of Initial (n = 1), 0 min / % Remaining of Initial (n = 1), 10 min / % Remaining of Initial (n = 1), 20 min / % Remaining of Initial (n = 1), 30 min / % Remaining of Initial (n = 1), 60 min / Measured concentration of PEA (analyte) / % Remaining of Initial: 1 μM
Procedure, shortened: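 Half-life derives from fitting remaining parent over 0–60 min to a single exponential decay. The incubation used liver S9 at 37 °C with a cofactor cocktail and 1 µM substrate.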

[1] = male, Beagle, dog, s9, Half-life (min)
[2] = male, Sprague-Dawley, rat, 0 min
[3] = male, Sprague-Dawley, rat, 10 min
[4] = male, Sprague-Dawley, rat, 20 min
[5] = male, Sprague-Dawley, rat, 30 min
[6] = male, Sprague-Dawley, rat, 60 min
[7] = male, Sprague-Dawley, rat, s9, 0 h
[8] = male, Sprague-Dawley, rat, s9, 10 min
[9] = male, Sprague-Dawley, rat, s9, 20 min
[10] = male, Sprague-Dawley, rat, s9, 0.5 h
[11] = male, Sprague-Dawley, rat, s9, 1 h

Structure (SMILES): CCCCCCCCCCCCCCCC(=O)NCCOC(=O)CCC(=O)OC[C@H]1O[C@@](CO)(O[C@H]2O[C@H](CO)[C@@H](O)[C@H](O)[C@H]2O)[C@@H](O)[C@@H]1O [Compound I-7]
- Concentration (μM) of analyte PEA, 0 min (both, human, 0 min): 0.20 µM
- Concentration (μM) of analyte PEA, 10 min (both, human, 10 min): 0.32 µM
- Concentration (μM) of analyte PEA, 20 min (both, human, 20 min): 0.17 µM
- Concentration (μM) of analyte PEA, 30 min (both, human, 30 min): 0.13 µM
- Concentration (μM) of analyte PEA, 60 min (both, human, 60 min): 0.042 µM
- % Remaining of Initial (n = 1), 0 min (both, human, s9, 0 h): 100%
- % Remaining of Initial (n = 1), 10 min (both, human, s9, 10 min): 1.9%
- % Remaining of Initial (n = 1), 20 min (both, human, s9, 20 min): <1.0%
- % Remaining of Initial (n = 1), 30 min (both, human, s9, 0.5 h): <1.0%
- % Remaining of Initial (n = 1), 60 min (both, human, s9, 1 h): <1.0%
- Concentration (μM) of analyte PEA, 0 min (male, Beagle, dog, 0 min): 0.21 µM
- Concentration (μM) of analyte PEA, 10 min (male, Beagle, dog, 10 min): 0.16 µM
- Concentration (μM) of analyte PEA, 20 min (male, Beagle, dog, 20 min): 0.15 µM
- Concentration (μM) of analyte PEA, 30 min (male, Beagle, dog, 30 min): 0.12 µM
- Concentration (μM) of analyte PEA, 60 min (male, Beagle, dog, 60 min): 0.049 µM
- % Remaining of Initial (n = 1), 0 min (male, Beagle, dog, s9, 0 h): 100%
- % Remaining of Initial (n = 1), 10 min (male, Beagle, dog, s9, 10 min): <1.0%
- % Remaining of Initial (n = 1), 20 min (male, Beagle, dog, s9, 20 min): <1.0%
- % Remaining of Initial (n = 1), 30 min (male, Beagle, dog, s9, 0.5 h): <1.0%
- % Remaining of Initial (n = 1), 60 min (male, Beagle, dog, s9, 1 h): <1.0%
- half-life at 1 μM [1]: < 1 min
- Concentration (μM) of analyte PEA, 0 min (male, CD-1, mouse, 0 min): 0.22 µM
- Concentration (μM) of analyte PEA, 10 min (male, CD-1, mouse, 10 min): 0.22 µM
- Concentration (μM) of analyte PEA, 20 min (male, CD-1, mouse, 20 min): 0.14 µM
- Concentration (μM) of analyte PEA, 30 min (male, CD-1, mouse, 30 min): 0.084 µM
- Concentration (μM) of analyte PEA, 60 min (male, CD-1, mouse, 60 min): 0.020 µM
- % Remaining of Initial (n = 1), 0 min (male, CD-1, mouse, s9, 0 h): 100%
- % Remaining of Initial (n = 1), 10 min (male, CD-1, mouse, s9, 10 min): 1.6%
- % Remaining of Initial (n = 1), 20 min (male, CD-1, mouse, s9, 20 min): <1.0%
- % Remaining of Initial (n = 1), 30 min (male, CD-1, mouse, s9, 0.5 h): <1.0%
- % Remaining of Initial (n = 1), 60 min (male, CD-1, mouse, s9, 1 h): <1.0%
- Concentration (μM) of analyte PEA, 0 min [2]: 0.045 µM
- Concentration (μM) of analyte PEA, 10 min [3]: 0.15 µM
- Concentration (μM) of analyte PEA, 20 min [4]: 0.16 µM
- Concentration (μM) of analyte PEA, 30 min [5]: 0.12 µM
- Concentration (μM) of analyte PEA, 60 min [6]: 0.039 µM
- % Remaining of Initial (n = 1), 0 min [7]: 100%
- % Remaining of Initial (n = 1), 10 min [8]: 43%
- % Remaining of Initial (n = 1), 20 min [9]: 22%
- % Remaining of Initial (n = 1), 30 min [10]: 11%
- % Remaining of Initial (n = 1), 60 min [11]: 1.4%

Structure (SMILES): CCCCCCCCCCCCCCCC(=O)NCCOC(=O)CCC(=O)OC(CO)CO [Compound I-8]
- Measured concentration of PEA (analyte) (both, human, 0 min): 0.19 µM
- Measured concentration of PEA (analyte) (both, human, 10 min): 0.57 µM
- Measured concentration of PEA (analyte) (both, human, 20 min): 0.47 µM
- Measured concentration of PEA (analyte) (both, human, 30 min): 0.41 µM
- Measured concentration of PEA (analyte) (both, human, 60 min): 0.28 µM
- % Remaining of Initial (both, human, s9, 0 h): 100%
- % Remaining of Initial (both, human, s9, 10 min): 1.4%
- % Remaining of Initial (both, human, s9, 20 min): <1.0%
- % Remaining of Initial (both, human, s9, 0.5 h): <1.0%
- % Remaining of Initial (both, human, s9, 1 h): <1.0%
- half-life at 1 μM (both, human, s9, Half-life): < 10 min
- Measured concentration of PEA (analyte) (male, Beagle, dog, 0 min): 0.13 µM
- Measured concentration of PEA (analyte) (male, Beagle, dog, 10 min): 0.33 µM
- Measured concentration of PEA (analyte) (male, Beagle, dog, 20 min): 0.34 µM
- Measured concentration of PEA (analyte) (male, Beagle, dog, 30 min): 0.33 µM
- Measured concentration of PEA (analyte) (male, Beagle, dog, 60 min): 0.20 µM
- % Remaining of Initial (male, Beagle, dog, s9, 0 h): 100%
- % Remaining of Initial (male, Beagle, dog, s9, 10 min): 32%
- % Remaining of Initial (male, Beagle, dog, s9, 20 min): 11%
- % Remaining of Initial (male, Beagle, dog, s9, 0.5 h): 3.5%
- % Remaining of Initial (male, Beagle, dog, s9, 1 h): <1.0%
- half-life at 1 μM (male, Beagle, dog, s9, Half-life): < 10 min
- Measured concentration of PEA (analyte) (male, CD-1, mouse, 0 min): 0.29 µM
- Measured concentration of PEA (analyte) (male, CD-1, mouse, 10 min): 0.50 µM
- Measured concentration of PEA (analyte) (male, CD-1, mouse, 20 min): 0.44 µM
- Measured concentration of PEA (analyte) (male, CD-1, mouse, 30 min): 0.38 µM
- Measured concentration of PEA (analyte) (male, CD-1, mouse, 60 min): 0.37 µM
- % Remaining of Initial (male, CD-1, mouse, s9, 0 h): 100%
- % Remaining of Initial (male, CD-1, mouse, s9, 10 min): 4.6%
- % Remaining of Initial (male, CD-1, mouse, s9, 20 min): 1.0%
- % Remaining of Initial (male, CD-1, mouse, s9, 0.5 h): <1.0%
- % Remaining of Initial (male, CD-1, mouse, s9, 1 h): <1.0%
- half-life at 1 μM (male, CD-1, mouse, s9, Half-life): < 10 min
- half-life at 1 μM (male, CD-1, mouse, s9, Half-life, calculated value in parentheses): 2.3 min
- Measured concentration of PEA (analyte) [2]: 0.069 µM
- Measured concentration of PEA (analyte) [3]: 0.17 µM
- Measured concentration of PEA (analyte) [4]: 0.092 µM
- Measured concentration of PEA (analyte) [5]: 0.061 µM
- Measured concentration of PEA (analyte) [6]: 0.013 µM
- % Remaining of Initial [7]: 100%
- % Remaining of Initial [8]: 17%
- % Remaining of Initial [9]: 2.8%
- % Remaining of Initial [10]: <1.0%
- % Remaining of Initial [11]: <1.0%
- half-life at 1 μM (male, Sprague-Dawley, rat, s9, Half-life): < 10 min
- half-life at 1 μM (male, Sprague-Dawley, rat, s9, Half-life, calculated value in parentheses): 3.9 min

Structure (SMILES): CCCCCCCCCCCCCCCC(=O)NCCOC(=O)CCC(=O)OCC(O)CO (stereo not shown) [Compound I-9]
- Concentration (μM) of analyte PEA, 0 min (both, human, 0 min): 0.35 µM
- Concentration (μM) of analyte PEA, 10 min (both, human, 10 min): 0.30 µM
- Concentration (μM) of analyte PEA, 20 min (both, human, 20 min): 0.18 µM
- Concentration (μM) of analyte PEA, 30 min (both, human, 30 min): 0.088 µM
- Concentration (μM) of analyte PEA, 60 min (both, human, 60 min): 0.028 µM
- % Remaining of Initial (n = 1), 0 min (both, human, s9, 0 h): 100%
- % Remaining of Initial (n = 1), 10 min (both, human, s9, 10 min): <1.0%
- % Remaining of Initial (n = 1), 20 min (both, human, s9, 20 min): <1.0%
- % Remaining of Initial (n = 1), 30 min (both, human, s9, 0.5 h): <1.0%
- % Remaining of Initial (n = 1), 60 min (both, human, s9, 1 h): <1.0%
- half-life at 1 μM (both, human, s9, Half-life (min)): < 1 min
- Concentration (μM) of analyte PEA, 0 min (male, Beagle, dog, 0 min): 0.32 µM
- Concentration (μM) of analyte PEA, 10 min (male, Beagle, dog, 10 min): 0.29 µM
- Concentration (μM) of analyte PEA, 20 min (male, Beagle, dog, 20 min): 0.21 µM
- Concentration (μM) of analyte PEA, 30 min (male, Beagle, dog, 30 min): 0.18 µM
- Concentration (μM) of analyte PEA, 60 min (male, Beagle, dog, 60 min): 0.078 µM
- % Remaining of Initial (n = 1), 0 min (male, Beagle, dog, s9, 0 h): 100%
- % Remaining of Initial (n = 1), 10 min (male, Beagle, dog, s9, 10 min): <1.0%
- % Remaining of Initial (n = 1), 20 min (male, Beagle, dog, s9, 20 min): <1.0%
- % Remaining of Initial (n = 1), 30 min (male, Beagle, dog, s9, 0.5 h): <1.0%
- % Remaining of Initial (n = 1), 60 min (male, Beagle, dog, s9, 1 h): <1.0%
- half-life at 1 μM [1]: < 1 min
- Concentration (μM) of analyte PEA, 0 min (male, CD-1, mouse, 0 min): 0.52 µM
- Concentration (μM) of analyte PEA, 10 min (male, CD-1, mouse, 10 min): 0.23 µM
- Concentration (μM) of analyte PEA, 20 min (male, CD-1, mouse, 20 min): 0.13 µM
- Concentration (μM) of analyte PEA, 30 min (male, CD-1, mouse, 30 min): 0.077 µM
- Concentration (μM) of analyte PEA, 60 min (male, CD-1, mouse, 60 min): 0.022 µM
- % Remaining of Initial (n = 1), 0 min (male, CD-1, mouse, s9, 0 h): 100%
- % Remaining of Initial (n = 1), 10 min (male, CD-1, mouse, s9, 10 min): <1.0%
- % Remaining of Initial (n = 1), 20 min (male, CD-1, mouse, s9, 20 min): <1.0%
- % Remaining of Initial (n = 1), 30 min (male, CD-1, mouse, s9, 0.5 h): <1.0%
- % Remaining of Initial (n = 1), 60 min (male, CD-1, mouse, s9, 1 h): <1.0%
- half-life at 1 μM (male, CD-1, mouse, s9, Half-life (min)): < 1 min
- Concentration (μM) of analyte PEA, 0 min [2]: 0.20 µM
- Concentration (μM) of analyte PEA, 10 min [3]: 0.31 µM
- Concentration (μM) of analyte PEA, 20 min [4]: 0.18 µM
- Concentration (μM) of analyte PEA, 30 min [5]: 0.11 µM
- Concentration (μM) of analyte PEA, 60 min [6]: 0.029 µM
- % Remaining of Initial (n = 1), 0 min [7]: 100%
- % Remaining of Initial (n = 1), 10 min [8]: 13%
- % Remaining of Initial (n = 1), 20 min [9]: 2.1%
- % Remaining of Initial (n = 1), 30 min [10]: <1.0%
- % Remaining of Initial (n = 1), 60 min [11]: <1.0%

Reference: patent US11547681B2, “N-acylethanolamide derivatives and uses thereof” (ELIEM THERAPEUTICS, INC., priority 2016, dated 2023)
